Assay results: ChEMBL document CHEMBL1155494, “New stilbene dimers against amyloid fibril formation” (Bioorg Med Chem Lett, 2010)

Tests used:
[1] = Inhibition of amyloid beta 25-35 fibril formation at 10 uM by using UV-visible measurements and electron microscopy analysis
[2] = Inhibition of amyloid beta 25-35 fibril formation by using UV-visible measurements and electron microscopy analysis

Compound | inhibition [1] | EC50 [2]
Oc1cc(O)cc(/C=C/c2ccc(O)c(O)c2)c1 | 25% | –
Oc1cc(O)cc(/C=C/c2ccc(O)cc2O)c1 | 32% | –
OC[C@H]1O[C@@H](Oc2ccc(/C=C/c3cc(O)cc(O)c3)cc2)[C@H](O)[C@@H](O)[C@@H]1O | 11% | –
COc1cc(/C=C/C(=O)CC(=O)/C=C/c2ccc(O)c(OC)c2)ccc1O [CURCUMIN] | 45% | 10 µM
Oc1ccc([C@H]2Oc3cc(O)c([C@@H]4[C@@H](c5cc6c(cc5O)O[C@H](c5ccc(O)cc5)[C@H]6c5cc(O)cc(O)c5)[C@H](c5ccc(O)cc5)O[C@@H]4c4ccc(O)cc4)cc3[C@@H]2c2cc(O)cc(O)c2)cc1 | 17% | –
OC[C@H]1O[C@@H](Oc2cc(O)cc(/C=C/c3ccc(O)cc3)c2)[C@H](O)[C@@H](O)[C@@H]1O [PICEID] | 62% | 6 µM
COc1cc(/C=C/c2cc(O)cc(O)c2)ccc1O[C@@H]1O[C@H](CO)[C@@H](O)[C@H](O)[C@H]1O | 28% | –
Oc1cc(O)cc(-c2cc3ccc(O)cc3o2)c1 | 9% | –
COc1cc(/C=C/c2ccc(O)cc2)cc(OC)c1 | 35% | –

Second part, the compound after the results:

inhibition [1] | EC50 [2] | Compound
40% | – | COc1cc(/C=C/c2cc(O)c3c(c2)O[C@H](c2ccc(O)c(OC)c2)[C@H]3c2cc(O)cc(O)c2)ccc1O
80% | 0.7 µM | Oc1ccc(/C=C/c2cc(O)cc3c2[C@H](c2cc(O)cc(O)c2)[C@@H](c2ccc(O)c(O)c2)O3)cc1 [SCIRPUSIN A]
93% | 0.2 µM | OC[C@H]1O[C@@H](Oc2cc(/C=C/c3ccc(O)cc3)c3c(c2)O[C@H](c2ccc(O)cc2)[C@H]3c2cc(O)cc(O)c2)[C@H](O)[C@@H](O)[C@@H]1O
63% | 6 µM | Oc1ccc(/C=C/c2cc(O)cc(O)c2)cc1 [RESVERATROL]
27% | – | Oc1ccc(/C=C/c2cc(O)cc3c2[C@H](c2cc(O)cc(O)c2)[C@@H](c2ccc(O)cc2)O3)cc1
46% | 10 µM | OC[C@@H]1O[C@H](Oc2ccc(/C=C/c3cc(O)c4c(c3)O[C@H](c3ccc(O[C@H]5O[C@@H](CO)[C@H](O)[C@@H](O)[C@@H]5O)cc3)[C@H]4c3cc(O)cc(O)c3)cc2)[C@@H](O)[C@H](O)[C@H]1O [12,GNEMENOSIDE A]
32% | – | Oc1ccc(C2Oc3ccc(/C=C/c4cc(O)cc5c4[C@H](c4cc(O)cc(O)c4)[C@@H](c4ccc(O)cc4)O5)cc3[C@@H]2c2cc(O)cc3c2[C@H](c2cc(O)cc(O)c2)C(c2ccc(O)cc2)O3)cc1 (some centres not stated)
